Experimental data published in US20080275133A1, “Local Administration of Retinoids to Treat Deficiencies in Dark Adaptation” (University Of Calfornia-San Francisco, priority 2004, published 2008).
Where two headings read alike, the source gives them in different places.

What was measured:
[1] = cited from earlier work
[2] = chronic high dose oral (liver damage, osteoporosis, promotion of lung cancer in smokers); cited from earlier work
[3] = tested on: Dark adaptation abnormalities; conditions: Sorsby's fundus dystrophy patients, high dose oral, for as little as 1 week; cited from earlier work
Dark adaptation = conditions: for Night driving ability: one week later
Experimental: A patient complains of difficulty driving at night, especially in going from a well-lit to a poorly-illuminated environment. […] One cc of Vitamin A and/or one of its visual pigment derivatives in a sustained release suspension is injected retrobulbarly on both sides. […] Six months later, the retrobulbar injections are repeated.
A patient complains of difficulty driving at night, especially in going from a well-lit to a poorly-illuminated environment. […] The patient has a cataract in the right eye and cataract surgery with an intraocular lens is performed. At the time of surgery, a small pellet of concentrated vitamin A and/or one of its visual pigment derivatives is placed in the eye for sustained release.

CC1=C(/C=C/C(C)=C/C=C/C(C)=C/C=O)C(C)(C)CCC1 [retinal]
Shielding from oxygen by BCD inclusion complex ([1]; beta cyclodextrin inclusion complex (Lerner et al., 1989)): can shield retinal from oxygen

CC1=C(/C=C/C(C)=C/C=C/C(C)=C/C(=O)O)C(C)(C)CCC1 [all-trans-retinoic acid, retinoic acid]
Photostability with BCD inclusion complex ([1]; beta cyclodextrin inclusion complex formation (Lin et al., 2000)): increase the photostability

CC1=C(/C=C/C(C)=C/C=C/C(C)=C/CO)C(C)(C)CCC1 [Vitamin A, (2E,4E,6E,8E)-3,7-dimethyl-9-(2,6,-trimethylcyclohex-1-en-1-yl)nona-2,4,6,8-tetraen-1-ol]
Systemic toxicity [2]: associated systemic toxicity | Dark adaptation abnormalities [3]: rapidly normalize | Night driving ability (Dark adaptation; Example 1: patient, one cc sustained release suspension retrobulbarly on both sides): drives without difficulty at night | Night driving ability (Dark adaptation; Example 2: patient, small sustained release pellet placed in the eye at cataract surgery): drives without difficulty at night | Duration of delivery in effective concentrations to the retina (Dark adaptation; human, in vivo): 0.5-3 years
